Experimental data: PubChem BioAssay (NCI)
Several values for one entry are separate records, joined by “and”; a condition that tells them apart may be missing. Equal values may be shown once.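 Cultured in 96-well plates, cells were exposed to test compound for 48 hours across five concentrations. GI50 marks 50% less growth. Definition used: TGI = concentration required for complete inhibition of growth.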

How the values were obtained:
Experiment in all cases: NCI anticancer screen, dose series, 48 h
A498 renal = test system: A498 renal
OVCAR-8 ovarian = test system: OVCAR-8 ovarian
TK-10 renal = test system: TK-10 renal
SF-295 CNS = test system: SF-295 CNS
MALME-3M melanoma = test system: MALME-3M melanoma
OVCAR-3 ovarian = test system: OVCAR-3 ovarian
NCI-H522 lung = test system: NCI-H522 lung
OVCAR-4 ovarian = test system: OVCAR-4 ovarian
COLO 205 colon = test system: COLO 205 colon
HCC-2998 colon = test system: HCC-2998 colon

SMILES	GI50 (A498 renal)	TGI (A498 renal)	GI50 (OVCAR-8 ovarian)	TGI (OVCAR-8 ovarian)	GI50 (TK-10 renal)	TGI (TK-10 renal)	GI50 (SF-295 CNS)	TGI (SF-295 CNS)	GI50 (MALME-3M melanoma)	TGI (MALME-3M melanoma)	GI50 (OVCAR-3 ovarian)	TGI (OVCAR-3 ovarian)	GI50 (NCI-H522 lung)	TGI (NCI-H522 lung)	GI50 (OVCAR-4 ovarian)	TGI (OVCAR-4 ovarian)	GI50 (COLO 205 colon)	TGI (COLO 205 colon)	TGI (HCC-2998 colon)	GI50 (HCC-2998 colon)
O=[N+]([O-])c1ccc(Sc2c3ccccc3nc3cc(Cl)ccc23)cc1	> 100 µM	> 100 µM	> 100 µM	> 100 µM	> 100 µM	> 100 µM	> 100 µM	> 100 µM	> 100 µM	> 100 µM	> 100 µM	> 100 µM	> 100 µM	> 100 µM	> 100 µM	> 100 µM	> 100 µM	> 100 µM	–	–
NC(=S)NN/C=C(\C=Nc1ccccc1)[N+](=O)[O-]	–	–	–	> 100 µM	–	> 100 µM	–	> 100 µM	–	> 100 µM	–	> 100 µM	–	> 100 µM	–	> 100 µM	–	> 100 µM	–	–
Oc1ccccc1-c1nn(CNc2ccccc2Cl)c(=S)o1	> 100 µM	> 100 µM	> 100 µM	> 100 µM	42.2 µM	> 100 µM	65.2 µM	> 100 µM	–	–	89.7 µM	> 100 µM	> 100 µM	> 100 µM	–	–	27 µM	> 100 µM	–	–
CSC(=S)N/N=C/c1nccc2ccccc12	–	13.6 µM	–	4.96 µM	–	62.9 µM	–	8.54 µM	–	32.7 µM	–	–	–	1.63 µM	–	> 100 µM	–	1.58 µM	11.3 µM	–
CCCCCCCCCCCCCCCC[N+]1(C)CCOCC1	3.38 µM	21.5 µM	2.53 µM	8.84 µM	1.86 µM	4.17 µM	1.8 µM	6.29 µM	2.38 µM	6.71 µM	1.56 µM	3.61 µM	2.09 µM	5.07 µM	–	–	1.15 µM	2.42 µM	2.75 µM	1.21 µM
Cc1ccccc1C(=O)N1CCN(C(=O)c2ccccc2C)CC1	–	> 100 µM	–	> 100 µM	–	> 100 µM	–	> 100 µM	–	–	–	> 100 µM	–	> 100 µM	–	> 100 µM	–	–	> 100 µM	–
Cc1c2ccccc2cc2ccc3oc([N+](=O)[O-])cc3c12	–	> 100 µM	–	> 100 µM	–	> 100 µM	–	> 100 µM	–	> 100 µM	–	> 100 µM	–	–	–	> 100 µM	–	> 100 µM	> 100 µM	–
O=C(O)c1ccccc1/C=N/N=C1c2ccccc2-c2ccccc21	–	> 100 µM	–	> 100 µM	–	> 100 µM	–	61 µM	–	> 100 µM	–	36 µM	–	> 100 µM	–	> 100 µM	–	> 100 µM	–	–
CC(C)(C)C(=O)[CH-]C(=O)C(C)(C)C.CC(C)(C)C(=O)[CH-]C(=O)C(C)(C)C.CN(C)c1ccc([O-])cc1.CN(C)c1ccc([O-])cc1.[Ti+4]	–	–	> 100 µM	> 100 µM	–	–	> 100 µM	> 100 µM	> 100 µM	> 100 µM	96.2 µM	> 100 µM	> 100 µM	> 100 µM	> 100 µM	> 100 µM	> 100 µM	> 100 µM	> 100 µM	> 100 µM
CSC(=NCCc1c[nH]c2ccccc12)NC#N	–	–	–	> 100 µM	–	> 100 µM	–	> 100 µM	–	–	–	> 100 µM	–	–	–	> 100 µM	–	> 100 µM	> 100 µM	–
Cc1ccc(NC(=O)c2cc(S(=O)(=O)N3C(=O)NC(=O)NS3(=O)=O)c(S)cc2Cl)cc1	26.2 µM	68.5 µM	30.7 µM	90.6 µM	27.8 µM	71.3 µM	26.2 µM	55 µM	–	–	16.5 µM	36.4 µM	36.1 µM	> 100 µM	47.6 µM	> 100 µM	39.8 µM	> 100 µM	60.5 µM	28.5 µM
c1ccc(N2N=C(c3ccco3)CC2c2ccco2)cc1 (stereo not drawn)	–	–	–	> 100 µM	–	> 100 µM	–	> 100 µM	–	> 100 µM	–	> 100 µM	–	> 100 µM	–	> 100 µM	–	> 100 µM	–	–
CCC1=CC2CN(C1)Cc1c([nH]c3ccccc13)[C@@](C(=O)OC)(c1cc3c(cc1OC)N(C)[C@H]1[C@@](O)(C(=O)OC)[C@H](OC(C)=O)[C@]4(CC)C=CCN5CC[C@]31[C@@H]54)C2 (stereo partly drawn)	0.014 µM and 0.0173 µM	0.326 µM and 0.151 µM	0.0201 µM and 0.0306 µM	50 µM and > 100 µM	–	–	0.0151 µM and 0.0231 µM	50 µM and > 100 µM	< 0.005 µM	8.68 µM	< 0.005 µM	0.00611 µM and 0.0135 µM	< 0.005 µM	1.3 µM	0.0341 µM	50 µM and > 100 µM	0.00763 µM	–	–	0.0108 µM and 0.0162 µM
N/N=C1\C(=O)N(CCc2ccccc2)C(=O)C1C(=O)NCCc1ccccc1 (stereo not drawn)	–	–	–	–	–	> 100 µM	–	> 100 µM	–	> 100 µM	–	> 100 µM	–	> 100 µM	–	–	–	–	–	–
CCN(C(=O)/C=C/c1ccco1)c1ccccc1	–	> 100 µM	–	> 100 µM	–	> 100 µM	–	> 100 µM	–	–	–	> 100 µM	–	> 100 µM	–	> 100 µM	–	> 100 µM	> 100 µM	–
C[C@H]1CCCC(O)C(O)[C@@H]2C[C@H](O[Si](C)(C)C(C)(C)C)C[C@H]2[C@H](O[Si](C)(C)C(C)(C)C)C(O)C(O)C(=O)O1 (stereo partly drawn)	40.4 µM	> 100 µM	13.5 µM	37.3 µM	17.2 µM	43.2 µM	32 µM	> 100 µM	11.7 µM	35.2 µM	25 µM	79.7 µM	–	–	–	–	> 100 µM	> 100 µM	50.3 µM	17.5 µM
COc1cnc2c(c1)C(=O)c1c-2n(CCCN2CCN(C)CC2)c(=O)c2cc([N+](=O)[O-])ccc12	–	–	1.19 µM	6.96 µM	0.237 µM	0.715 µM	0.0698 µM	0.483 µM	–	–	0.171 µM	0.359 µM	0.479 µM	2.39 µM	1.46 µM	3.31 µM	1.64 µM	3.38 µM	27.7 µM	14.6 µM
CC(=O)c1ccc(O)c(CN(C2CCCCC2)C2CCCCC2)c1O	–	> 100 µM	–	> 100 µM	–	> 100 µM	–	> 100 µM	–	> 100 µM	–	> 100 µM	–	> 100 µM	–	> 100 µM	–	> 100 µM	–	–
